Reference: PubChem BioAssay (NCI)
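Growth conditions: 96-well plates. Treatment: test compound, 48 hours, 5 concentrations. Analysis: linear interpolation between bracketing concentrations; unreached endpoints set to highest concentration. Definition used: TGI = concentration required for complete inhibition of growth.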

Columns and labels:
Test in all cases: growth of human tumour cells (NCI), 48 h
SR leukemia = system: SR leukemia
HOP-62 NSCLC = system: HOP-62 NSCLC
HOP-92 NSCLC = system: HOP-92 NSCLC
TK-10 renal = system: TK-10 renal
HCC-2998 colon = system: HCC-2998 colon
T-47D breast = system: T-47D breast
MDA-MB-435 = system: MDA-MB-435
RXF 393 renal = system: RXF 393 renal
CAKI-1 renal = system: CAKI-1 renal
HS 578T breast = system: HS 578T breast
HL-60(TB) leukemia = system: HL-60(TB) leukemia
SF-268 CNS = system: SF-268 CNS
ACHN renal = system: ACHN renal
NCI-H23 lung = system: NCI-H23 lung
SK-OV-3 ovarian = system: SK-OV-3 ovarian

Measured: TGI

O=[N+]([O-])c1ccc(OP(=O)(O)OCC2OC(CP(=O)(O)O)C(O)C2O)cc1 (stereo unspecified)
not listed: SK-OV-3 ovarian
> 100 µM: all other assays above

O=C(O)c1cccc(S(=O)(=O)NN2C(=O)CSC2c2ccccc2Cl)c1 (stereo unspecified)
> 100 µM: all assays above

N=c1oc2ccc([N+](=O)[O-])cc2cc1C(=O)Nc1ccccn1
78.5 µM: HS 578T breast
not listed: TK-10 renal
> 100 µM: all other assays above

c1csc(-c2ccc(-c3ccsc3)s2)c1
> 100 µM: all assays above

c1csc(-c2cscc2-c2cccs2)c1
82.6 µM: HCC-2998 colon
93.8 µM: HOP-62 NSCLC
77.7 µM: RXF 393 renal
> 100 µM: all other assays above

COc1ccc(/C=N/NS(=O)(=O)c2ccc(/C=C3\NC(=O)N(C)C3=O)cc2)cc1
> 100 µM: all assays above

O=C(Nc1ccccc1)c1cc2c(cc1Cl)SC(NNCCO)=NS2(=O)=O
> 100 µM: all assays above

CSc1ncc2c(C#N)c3ccccn3c(=O)c2n1
> 100 µM: all assays above

CC(C)CC(NC=O)C(=O)NC(Cc1ccccc1)NC(=O)CNC(=O)C(C)NC(=O)OC(C)(C)C (stereo unspecified)
not listed: HCC-2998 colon
> 100 µM: all other assays above

S=C1NCCN1C(=S)NC1CCCCC1
67.6 µM: MDA-MB-435
96.7 µM: HL-60(TB) leukemia
66.2 µM: HOP-92 NSCLC
74.5 µM: CAKI-1 renal
59.2 µM: NCI-H23 lung
99.2 µM: HS 578T breast
28.6 µM: RXF 393 renal
42.3 µM: HCC-2998 colon
93.1 µM: TK-10 renal
> 100 µM: all other assays above

N=C1/C(=C/c2ccccc2)C(=O)N=C2SC=NN12
> 100 µM: all assays above

c1ccc(CNCCCNCCCCNCCCNCc2ccccc2)cc1
31 µM: SK-OV-3 ovarian
3.57 µM: HOP-92 NSCLC
39.8 µM: T-47D breast
8.91 µM: MDA-MB-435
12.3 µM: NCI-H23 lung
23 µM: CAKI-1 renal
21.4 µM: ACHN renal
4 µM: HL-60(TB) leukemia
17.1 µM: HOP-62 NSCLC
3.74 µM: HS 578T breast
15.2 µM: HCC-2998 colon
25.6 µM: SR leukemia | SF-268 CNS
25.7 µM: RXF 393 renal
18 µM: TK-10 renal

Nc1nc(Cl)cc(NCC2(CO)CC(c3ccccc3)C2)n1 (stereo unspecified)
56.9 µM: HL-60(TB) leukemia
83.8 µM: HS 578T breast
not listed: HCC-2998 colon
> 100 µM: all other assays above
